The text below walks through data of patent US5416073A, “Growth hormone-releasing peptides and method of treating animals, therewith” (The Adminstrators of the Tulane Educational Fund, priority 1985, dated 1995).

Square brackets hold non-standard residues; d marks the D form. Peptide text beside a SMILES is read from it.

This test deals with Growth Hormone Release. The experiment in a line: Peptide effects on growth hormone release, plasma GH by RIA in anesthetized male rats. Type of test: in vivo, rat. The protocol:
In this evaluation, the procedures described by W. A. Murphy et al., Endocrinology 109:491-495 (1980), were employed.
In growth hormone (GH) experiments, male rats (Charles Rivers) were anesthetized with NEMBUTAL® (6 mg per 100 g body weight) which also served to maintain stimulated plasma GH levels. Exactly 30 minutes after the rats were anesthetized, 0.5 mL of saline or the test peptide in saline was administered as a SC bolus. A 1 mL blood sample was drawn from the jugular vein 15 minutes after the injection of the peptide in saline. GH levels were determined using NIADDKD rat GH RIA components.

`CCCC[C@H](NC(=O)[C@@H](NC(=O)[C@H](CC(=O)O)NC(=O)[C@H](CCC(N)=O)NC(=O)[C@H](CC(C)C)NC(=O)[C@H](CC(C)C)NC(=O)[C@H](CCCCN)NC(=O)[C@H](CCCNC(=N)N)NC(=O)[C@H](C)NC(=O)[C@H](CO)NC(=O)[C@H](CC(C)C)NC(=O)[C@H](CCC(N)=O)NC(=O)CNC(=O)[C@H](CC(C)C)NC(=O)[C@@H](NC(=O)[C@H](CCCCN)NC(=O)[C@H](CCCNC(=N)N)NC(=O)[C@H](Cc1ccc(O)cc1)NC(=O)[C@H](CO)NC(=O)[C@@H](CC(N)=O)NC(=O)[C@@H](NC(=O)[C@H](Cc1ccccc1)NC(=O)[C@@H](NC(=O)[C@H](C)NC(=O)[C@H](CC(=O)O)NC(=O)[C@@H](C)NC(=O)[C@@H](N)Cc1ccc(O)cc1)[C@@H](C)CC)[C@@H](C)O)C(C)C)[C@@H](C)CC)C(=O)N[C@@H](CO)C(=O)N[C@@H](CCCNC(=N)N)C(N)=O` [D-Ala^2 -D-Asn^8 -Nle^27, D-alanine^2, D-asparagine^8, Norleucine^27-human Pancreatic Growth Hormone-Releasing(1-29)-amide]: the “Plasma GH” value is, setting by setting: (dose 0.05 ug/100 g BW SC, 15 min, saline 203 ± 39) 407 ± 53 ng/mL; (dose 0.5 ug/100 g BW SC, 15 min, saline 203 ± 39) 1613 ± 138 ng/mL.

Take `CCCC[C@H](NC(=O)[C@@H](NC(=O)[C@H](CC(=O)O)NC(=O)[C@H](CCC(N)=O)NC(=O)[C@H](CC(C)C)NC(=O)[C@H](CC(C)C)NC(=O)[C@H](CCCCN)NC(=O)[C@H](CCCNC(=N)N)NC(=O)[C@H](C)NC(=O)[C@H](CO)NC(=O)[C@H](CC(C)C)NC(=O)[C@H](CCC(N)=O)NC(=O)CNC(=O)[C@H](CC(C)C)NC(=O)[C@@H](NC(=O)[C@H](CCCCN)NC(=O)[C@H](CCCNC(=N)N)NC(=O)[C@H](Cc1ccc(O)cc1)NC(=O)[C@H](CO)NC(=O)[C@@H](CC(N)=O)NC(=O)[C@@H](NC(=O)[C@H](Cc1ccccc1)NC(=O)[C@@H](NC(=O)[C@H](C)NC(=O)[C@@H](CC(=O)O)NC(=O)[C@@H](C)NC(=O)[C@@H](N)Cc1ccc(O)cc1)[C@@H](C)CC)[C@@H](C)O)C(C)C)[C@@H](C)CC)C(=O)N[C@@H](CO)C(=O)N[C@@H](CCCNC(=N)N)C(N)=O` [D-Ala^2 -D-Asp^3 -D-Asn^8 -Nle^27, D-alanine^2, D-aspartic acid^3, D-asparagine^8, Norleucine27-human Pancreatic Growth Hormone-Releasing(1-29)-amide]: the “Plasma GH” value by setting is: (dose 0.1 ug/100 g BW SC, 15 min, saline 383 ± 79) 767 ± 146 ng/mL; (dose 1.0 ug/100 g BW SC, 15 min, saline 383 ± 79) 2419 ± 252 ng/mL.

Turning to `CCCC[C@H](NC(=O)[C@@H](NC(=O)[C@H](CC(=O)O)NC(=O)[C@H](CCC(N)=O)NC(=O)[C@H](CC(C)C)NC(=O)[C@H](CC(C)C)NC(=O)[C@H](CCCCN)NC(=O)[C@H](CCCNC(=N)N)NC(=O)[C@H](C)NC(=O)[C@H](CO)NC(=O)[C@H](CC(C)C)NC(=O)[C@H](CCC(N)=O)NC(=O)CNC(=O)[C@H](CC(C)C)NC(=O)[C@@H](NC(=O)[C@H](CCCCN)NC(=O)[C@H](CCCNC(=N)N)NC(=O)[C@H](Cc1ccc(O)cc1)NC(=O)[C@H](CO)NC(=O)[C@H](CC(N)=O)NC(=O)[C@@H](NC(=O)[C@H](Cc1ccccc1)NC(=O)[C@@H](NC(=O)[C@H](C)NC(=O)[C@H](CC(=O)O)NC(=O)[C@@H](C)NC(=O)[C@@H](N)Cc1ccc(O)cc1)[C@@H](C)CC)[C@@H](C)O)C(C)C)[C@@H](C)CC)C(=O)N[C@@H](CO)C(=O)N[C@@H](CCCNC(=N)N)C(N)=O` [D-Ala^2 -Nle^27, D-alanine^2, Norleucine^27-human Pancreatic Growth Hormone-Releasing(1-29)-amide], the “Plasma GH” value (dose 0.1 ug/100 g BW SC, 15 min, saline 278 ± 37) came out at 465 ± 75 ng/mL and the “Plasma GH” value (dose 1.0 ug/100 g BW SC, 15 min, saline 278 ± 37) was 2287 ± 265 ng/mL.

Regarding `CC[C@H](C)[C@H](NC(=O)[C@H](C)NC(=O)[C@H](CC(=O)O)NC(=O)[C@H](C)NC(=O)[C@H](Cc1ccc(O)cc1)NC(C)=O)C(=O)N[C@@H](Cc1ccccc1)C(=O)N[C@H](C(=O)N[C@@H](CC(N)=O)C(=O)N[C@@H](CO)C(=O)N[C@@H](Cc1ccc(O)cc1)C(=O)N[C@@H](CCCNC(=N)N)C(=O)N[C@@H](CCCCN)C(=O)N[C@H](C(=O)N[C@@H](CC(C)C)C(=O)NCC(=O)N[C@@H](CCC(N)=O)C(=O)N[C@@H](CC(C)C)C(=O)N[C@@H](CO)C(=O)N[C@@H](C)C(=O)N[C@@H](CCCNC(=N)N)C(=O)N[C@@H](CCCCN)C(=O)N[C@@H](CC(C)C)C(=O)N[C@@H](CC(C)C)C(=O)N[C@@H](CCC(N)=O)C(=O)N[C@@H](CC(=O)O)C(=O)N[C@H](C(=O)N[C@@H](CCSC)C(=O)N[C@@H](CO)C(=O)N[C@@H](CCCNC(=N)N)C(N)=O)[C@@H](C)CC)C(C)C)[C@@H](C)O` [N-Ac-hpGRF(1-29)-NH2, N-acetyl Human Pancreatic Growth Hormone-Releasing Factor(1-29)-Amide], the “Plasma GH” value (dose 1.20 μg/100 g BW SC, 15 min, saline 342 ± 53) turned out to be 2518 ± 598 ng/mL and the “Plasma GH” value (dose 3.0 μg/100 g BW SC, 15 min, saline 342 ± 53) is reported as 4899 ± 557 ng/mL.

As for `CC[C@H](C)[C@H](NC(=O)[C@H](C)NC(=O)[C@@H](CC(=O)O)NC(=O)[C@@H](C)NC(=O)[C@@H](Cc1ccc(O)cc1)NC(C)=O)C(=O)N[C@@H](Cc1ccccc1)C(=O)N[C@H](C(=O)N[C@@H](CC(N)=O)C(=O)N[C@@H](CO)C(=O)N[C@@H](Cc1ccc(O)cc1)C(=O)N[C@@H](CCCNC(=N)N)C(=O)N[C@@H](CCCCN)C(=O)N[C@H](C(=O)N[C@@H](CC(C)C)C(=O)NCC(=O)N[C@@H](CCC(N)=O)C(=O)N[C@@H](CC(C)C)C(=O)N[C@@H](CO)C(=O)N[C@@H](C)C(=O)N[C@@H](CCCNC(=N)N)C(=O)N[C@@H](CCCCN)C(=O)N[C@@H](CC(C)C)C(=O)N[C@@H](CC(C)C)C(=O)N[C@@H](CCC(N)=O)C(=O)N[C@@H](CC(=O)O)C(=O)N[C@H](C(=O)N[C@@H](CCSC)C(=O)N[C@@H](CO)C(=O)N[C@@H](CCCNC(=N)N)C(N)=O)[C@@H](C)CC)C(C)C)[C@@H](C)O` [N-acetyl-D-tyrosine^1,D-alanine^2,D-aspartic acid^3-human Pancreatic Growth Hormone-Releasing(1-29)-amine], the “Plasma GH” value is, setting by setting: (dose 1.0 μg/100 g BW SC, 15 min, saline 541 ± 78) 1181 ± 164 ng/mL; (dose 5.0 μg/100 g BW SC, 15 min, saline 541 ± 78) 3594 ± 754 ng/mL.

On to `CC[C@H](C)[C@H](NC(=O)[C@H](C)NC(=O)[C@H](CC(=O)O)NC(=O)[C@@H](C)NC(=O)[C@@H](N)Cc1ccc(O)cc1)C(=O)N[C@@H](Cc1ccccc1)C(=O)N[C@H](C(=O)N[C@@H](CC(N)=O)C(=O)N[C@@H](CO)C(=O)N[C@@H](Cc1ccc(O)cc1)C(=O)N[C@@H](CCCNC(=N)N)C(=O)N[C@@H](CCCNC(=N)N)C(=O)N[C@H](C(=O)N[C@@H](CC(C)C)C(=O)NCC(=O)N[C@@H](CCC(N)=O)C(=O)N[C@@H](CC(C)C)C(=O)N[C@@H](CO)C(=O)N[C@@H](C)C(=O)N[C@@H](CCCNC(=N)N)C(=O)N[C@@H](CCCNC(=N)N)C(=O)N[C@@H](CC(C)C)C(=O)N[C@@H](CC(C)C)C(=O)N[C@@H](CCC(N)=O)C(=O)N[C@@H](CC(=O)O)C(=O)N[C@H](C(=O)N[C@@H](CCSC)C(=O)N[C@@H](CO)C(=O)N[C@@H](CCCNC(=N)N)C(N)=O)[C@@H](C)CC)C(C)C)[C@@H](C)O` [[D-Ala^2, Arg^12, 21]-hpGRF(1-29)-NH2, D-alanine^2, Arginine^12,21-human Growth Hormone-Releasing (1-29)-amide] (H-Y[dA]DAIFTNSYRRVLGQLSARRLLQDIMSR-NH2), for which the “Plasma GH” value by setting is: (dose 0.4 μ/100 g BW SC, 15 min, saline 309 ± 20) 755 ± 131 ng/mL; (dose 1.0 μ/100 g BW SC, 15 min, saline 309 ± 20) 1752 ± 289 ng/mL.

Take `CC[C@H](C)[C@H](NC(=O)[C@H](C)NC(=O)[C@H](CC(=O)O)NC(=O)[C@@H](C)NC(=O)[C@@H](Cc1ccc(O)cc1)NC(C)=O)C(=O)N[C@@H](Cc1ccccc1)C(=O)N[C@H](C(=O)N[C@@H](CC(N)=O)C(=O)N[C@@H](CO)C(=O)N[C@@H](Cc1ccc(O)cc1)C(=O)N[C@@H](CCCNC(=N)N)C(=O)N[C@@H](CCCCN)C(=O)N[C@H](C(=O)N[C@@H](CC(C)C)C(=O)NCC(=O)N[C@@H](CCC(N)=O)C(=O)N[C@@H](CC(C)C)C(=O)N[C@@H](CO)C(=O)N[C@@H](C)C(=O)N[C@@H](CCCNC(=N)N)C(=O)N[C@@H](CCCCN)C(=O)N[C@@H](CC(C)C)C(=O)N[C@@H](CC(C)C)C(=O)N[C@@H](CCC(N)=O)C(=O)N[C@@H](CC(=O)O)C(=O)N[C@H](C(=O)N[C@@H](CCSC)C(=O)N[C@@H](CO)C(=O)N[C@@H](CCCNC(=N)N)C(N)=O)[C@@H](C)CC)C(C)C)[C@@H](C)O` [[N-Ac-D-Tyr^1, D-Ala^2]-hpGRF(1-29)-NH2, N-acetyl-D-tyrosine^1,D-alanine^2-human pancreatic growth hormone-releasing (1-29)-amine]: the “Plasma GH” value runs as follows: (dose 0.2 μ/100 g BW SC, 15 min, saline 333 ± 50) 680 ± 100 ng/mL; (dose 0.5 μ/100 g BW SC, blood 15 min after injection, saline 333 ± 50) 499 ± 50 ng/mL; (dose 0.8 μ/100 g BW SC, 15 min, saline 333 ± 50) 2063 ± 251 ng/mL; (dose 3.2 μ/100 g BW SC, 15 min, saline 333 ± 50) 3818 ± 412 ng/mL.

With “Ac-YADAIFTNSYRRVLGQLSARRLLQDIMSR-NH2 [[N-Ac-Tyr, Arg^12, 21]-hpGRF(1-29)-NH2, N-acetyl Arginine^12,21-human Pancreatic Growth Hormone-Releasing Factor (1-29)-amide]”, the “Plasma GH” value runs as follows: (dose 1 μ/100 g BW SC, 15 min, saline 27% ± 54) 796 ± 88 ng/mL; (dose 2.5 μ/100 g BW SC, 15 min, saline 27% ± 54) 1649 ± 167 ng/mL.

For “D-asparagine^8 -human Pancreatic Growth Hormone-Releasing(1-29)-amide [D-Asn^8]”, the “Plasma GH” value by setting is: (dose 4 ug/100 g BW SC, 15 min, saline 366 ± 81) 1296 ± 118 ng/mL; (dose 10 ug/100 g BW SC, 15 min, saline 366 ± 81) 2397 ± 246 ng/mL.
